Columns and labels:
MDA-MB-231 [1] = conditions: incubation time: 72 h
Description: (§1)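 MDA-MB-231 breast cancer cells were transfected with siBRCA1 or non-targeting siControl, then seeded 24 h later at 4000 cells/well in 384-well plates holding 198 drugs at 5 concentrations. Viability was read by CellTiter-Blue after 72 h at 37 °C. Dose-response curves were fitted in Dotmatics to give IC50 and a drug sensitivity score (DSS: area under the curve relative to the area between the 10% threshold and 100% inhibition, normalised by the log of the top response). The dose range is not stated. IC50 values of 8333.3 or 4166.7 nM mark no response (top dose), and 0.8333 nM is the lower limit.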

MDA-MB-231 [2] = assay: drug sensitivity score (DSS); higher = more sensitive; extreme values may be limits of the assay; conditions: incubation time: 72 h
Description: as §1

[3] = siRNA: siControl (non-targeting)

| IC50 of cell viability (MDA-MB-231 [1]; siRNA: siBRCA1) | IC50 of cell viability (MDA-MB-231 [1]; [3]) | SMILES | drug sensitivity score (MDA-MB-231 [2]; siRNA: siBRCA1) | drug sensitivity score (MDA-MB-231 [2]; [3]) |
| --- | --- | --- | --- | --- |
| > 4170 nM | > 4170 nM | CC1CCN(C(=O)CC#N)CC1N(C)c1ncnc2[nH]ccc12 (stereo in doubt) [Tasocitinib] | 0 | 0 |
| > 4170 nM | > 4170 nM | O=C1CN2Cc3c(ccc(Cl)c3Cl)N=C2N1 [Anagrelide] | 0 | 0 |
| > 4170 nM | > 4170 nM | CC(C)(C#N)c1cc(Cn2cncn2)cc(C(C)(C)C#N)c1 [Anastrozole] | 0 | 0 |
| > 4170 nM | > 4170 nM | CNC(=O)c1ccccc1Sc1ccc2c(/C=C/c3ccccn3)n[nH]c2c1 [Axitinib] | 0 | 0 |
| > 4170 nM | > 4170 nM | Nc1ncn([C@@H]2O[C@H](CO)[C@@H](O)[C@H]2O)c(=O)n1 [Azacitidine] | 0 | 0 |
| 900 nM | 813 nM | CNC(=O)c1cc(Oc2ccc(NC(=O)Nc3ccc(Cl)c(C(F)(F)F)c3)c(F)c2)ccn1 [BAY 73-4506] | 4.52 | 2.71 |
| 5.67 nM | 3.08 nM | CC[C@@H]1C(=O)N(C)c2cnc(Nc3ccc(C(=O)NC4CCN(C)CC4)cc3OC)nc2N1C1CCCC1 [BI 2536] | 23.3 | 24.9 |
| 869 nM | 1290 nM | COc1c(C)cnc(Cn2cnc3c(Cl)nc(N)nc32)c1C [BIIB021] | 8.95 | 9.35 |
| 757 nM | 668 nM | O=C(/C=C/c1cccc(S(=O)(=O)Nc2ccccc2)c1)NO [Belinostat] | 12.2 | 12.9 |
| > 4170 nM | > 4170 nM | C=C(c1ccc(C(=O)O)cc1)c1cc2c(cc1C)C(C)(C)CCC2(C)C [Bexarotene] | 0 | 0 |
| > 4170 nM | > 4170 nM | CCNC(=O)CCC/C=C\C[C@@H]1[C@@H](/C=C/[C@@H](O)CCc2ccccc2)[C@H](O)C[C@@H]1O [Bimatoprost] | 0 | 0 |
| 6.91 nM | 18.6 nM | CC(C)C[C@H](NC(=O)[C@H](Cc1ccccc1)NC(=O)c1cnccn1)B(O)O [Bortezomib] | 37.9 | 32.2 |
| > 4170 nM | > 4170 nM | CS(=O)(=O)OCCCCOS(C)(=O)=O [Busulfan] | 0 | 0 |

Continued, molecule first:

| SMILES | IC50 of cell viability (MDA-MB-231 [1]; siRNA: siBRCA1) | IC50 of cell viability (MDA-MB-231 [1]; [3]) | drug sensitivity score (MDA-MB-231 [2]; siRNA: siBRCA1) | drug sensitivity score (MDA-MB-231 [2]; [3]) |
| --- | --- | --- | --- | --- |
| CC(=O)Nc1cccc(-n2c(=O)n(C3CC3)c(=O)c3c(Nc4ccc(I)cc4F)n(C)c(=O)c(C)c32)c1 | 2.46 nM | 2.21 nM | 22 | 22.5 |
| CC(=O)c1c(C)c2cnc(Nc3ccc(N4CCNCC4)cn3)nc2n(C2CCCC2)c1=O | 125 nM | 248 nM | 6.11 | 9.43 |
| CN(C)C[C@@H]1CCn2cc(c3ccccc32)C2=C(C(=O)NC2=O)c2cn(c3ccccc23)CCO1 | 2720 nM | 3770 nM | 5.43 | 4.41 |
| CN1CCC(COc2cnc(-c3cccc(Cn4nc(-c5cccc(C#N)c5)ccc4=O)c3)nc2)CC1 | 3770 nM | 4020 nM | 3.92 | 3.58 |
| CNCc1ccc(-c2[nH]c3cc(F)cc4c3c2CCNC4=O)cc1 | > 4170 nM | > 4170 nM | 0 | 0 |
| COc1ccc(-c2cc3c(C)nc(N)nc3n([C@H]3CC[C@H](OCCO)CC3)c2=O)cn1 | 125 nM | 129 nM | 18.9 | 18.6 |
| C[C@@]1(C(=O)Nc2ccc(F)nc2)CCCN1c1nc(Nc2cc(C3CC3)n[nH]2)c2cccn2n1 | > 4170 nM | 1190 nM | 3.5 | 7.43 |
| Cc1cc(Nc2cc(CN3CCOCC3)c3nc(C)c(Cc4ccc(Cl)cc4F)n3n2)n[nH]1 | 1380 nM | > 4170 nM | 6.15 | 3.18 |
| O=C(NC[C@H](O)CO)c1ccncc1Nc1ccc(I)cc1F | 132 nM | 50 nM | 16 | 17.4 |
| COc1cc2c(cc1O)CC[C@@H]1[C@@H]2CC[C@]2(C)[C@@H](O)CC[C@@H]12 [2-methoxyestradiol] | 1230 nM | 794 nM | 6.82 | 8.29 |
| COc1ccc(S(=O)(=O)Nc2cccnc2Nc2ccc(O)cc2)cc1 [ABT-751] | 253 nM | 308 nM | 13.9 | 13.5 |
| CC(C)(C)c1cc(NC(=O)Nc2ccc(-c3cn4c(n3)sc3cc(OCCN5CCOCC5)ccc34)cc2)no1 [AC220] | > 4170 nM | > 4170 nM | 0 | 0.0185 |
| O=C(Nc1c[nH]nc1-c1nc2ccc(CN3CCOCC3)cc2[nH]1)NC1CC1 [AT9283] | 267 nM | 173 nM | 16.5 | 18.6 |
| COc1cc(OC2CCN(C)CC2)ccc1Nc1ncc2c(n1)n(C1CCCC1)c(=O)n2C [AZ 3146] | > 4170 nM | > 4170 nM | 0 | 0 |
| COc1ccc(-c2ccc3c(N4CCOC[C@@H]4C)nc(N4CCOC[C@@H]4C)nc3n2)cc1CO [AZD8055] | 45.9 nM | 88.8 nM | 19.1 | 18.2 |
| NC(=O)Nc1cc(-c2cccc(F)c2)sc1C(=O)N[C@H]1CCCNC1 [AZD 7762] | 242 nM | 582 nM | 17.4 | 13.7 |
| C[C@]12CC[C@H](O)CC1=CC[C@@H]1[C@@H]2CC[C@]2(C)C(c3cccnc3)=CC[C@@H]12 [Abiraterone] | > 4170 nM | > 4170 nM | 0 | 0 |
| CN(C)C/C=C/C(=O)Nc1cc2c(Nc3ccc(F)c(Cl)c3)ncnc2cc1O[C@H]1CCOC1 [Afatinib] | 3350 nM | 1680 nM | 4.43 | 8.65 |
| Oc1ncnc2[nH]ncc12 [Allopurinol] | > 4170 nM | > 4170 nM | 0 | 0 |
| CN(C)c1nc(N(C)C)nc(N(C)C)n1 [Altretamine] | > 4170 nM | > 4170 nM | 0 | 0 |
| CO[C@H]1/C=C\C=C(/C)C(=O)NC2=CC(=O)C(NCCN(C)C)=C(C[C@@H](C)C[C@H](OC)[C@H](O)[C@@H](C)/C=C(\C)[C@@H]1OC(N)=O)C2=O [Alvespimycin] | 128 nM | 75.7 nM | 20 | 22.7 |
| CN1CC[C@H](c2c(O)cc(O)c3c(=O)cc(-c4ccccc4Cl)oc23)[C@H](O)C1 [Alvocidib] | 181 nM | 150 nM | 18.8 | 20.2 |
| NCCCNCCSP(=O)(O)O [Amifostine] | > 4170 nM | > 4170 nM | 0 | 0 |
| CCC1(c2ccc(N)cc2)CCC(=O)NC1=O (centres undefined) [Aminoglutethimide] | > 4170 nM | > 4170 nM | 0 | 0 |
| NCC(=O)CCC(=O)O [Aminolevulinic acid] | > 4170 nM | > 4170 nM | 0 | 0 |
| CN(C)CCN1C(=O)c2cccc3cc(N)cc(c23)C1=O [Amonafide] | 1790 nM | 2160 nM | 8.98 | 6.72 |
| Cc1c(N)nc([C@H](CC(N)=O)NC[C@H](N)C(N)=O)nc1C(=O)N[C@H](C(=O)N[C@H](C)[C@@H](O)[C@H](C)C(=O)N[C@H](C(=O)NCCc1nc(-c2nc(C(=O)NCCC[S+](C)C)cs2)cs1)[C@@H](C)O)[C@@H](OC1OC(CO)C(O)C(O)C1OC1OC(CO)C(O)C(OC(N)=O)C1O)c1cnc[nH]1 (some centres undefined) [Bleomycin] | > 4170 nM | 125 nM | 0 | 3.28 |
| CCC/C=C/C=C/C(=O)O[C@H]1/C(=C/C(=O)OC)C[C@H]2C[C@H]([C@@H](C)O)OC(=O)C[C@H](O)C[C@@H]3C[C@H](OC(C)=O)C(C)(C)[C@](O)(C[C@@H]4C/C(=C/C(=O)OC)C[C@H](/C=C/C(C)(C)[C@]1(O)O2)O4)O3 [Bryostatin 1] | 83.3 nM | 83.3 nM | 0 | 0 |
